Test results published in patent publication US11191774B2, “Drug formulations for cancer treatment” (The Regents of the University of California, priority 2015, dated 2021).
pIC50: −log10 of the molar value. Values joined by “and” are separate entries in the source; they are usually repeats but may differ in a detail not shown here. Equal values may be shown once.

What was measured:
BT-474 cells = assay: Liposomal cancer cell growth inhibition, calcein-AM viability assay; type: cell-based, human
Experimental: (§1) In vitro anticancer efficacy of drug-loaded liposomes was determined via calcein-AM cell viability assay. BT-474 cells or 4T1 cells were seeded in a 96-well cell culture plate at a density of 11,000 cells per well or 1,000 cells per well in a total volume of 100 μL media and allowed to adhere overnight. Media was then replaced with fresh media containing liposomes and incubated for 72 hours or 48 hours for BT-474 or 4T1 cells, respectively. The discrepancies of cell seeding densities and drug incubation times between BT-474 cells and 4T1 cells is due to the much lower doubling time of 4T1 cells compared to BT-474. Parameters were modified such that untreated cells reached 70% confluency after treatment. After incubation with liposomes, media was aspirated and replaced with 1 μM calcein-AM in PBS for 30 minutes at room temperature. Fluorescence intensity of intracellularly hydrolyzed calcein-AM was measured using excitation and emission wavelengths of 490 nm and 520 nm. Fractional cell inhibition was calculated by subtracting fluorescence of live cells in experimental wells from those of untreated cells and normalizing against untreated cells. D50 concentrations were determined by fitting experimental data to the median-effect model (Chou and Talalay, Advances in Enzyme Regulation 1984, 22, 27-55), and their error is reported as the standard error of the model fit.

[1] = system: 4T1 murine breast cancer cells; assay: as above; type: cell-based, mouse; conditions: 4T1, W concentrations expected during 5FURW cytotoxicity assays, free or liposome-encapsulated
Experimental: as §1

[2] = system: BT-474 human breast cancer cells; assay: Combination Index (CI) study of free drugs, MTT cell viability; type: cell-based
Experimental: (§2) For cell viability studies, BT-474 cells were seeded at a density of 10,000 cells per well in 100 μL cell culture medium, grown overnight and incubated with drug solutions for 72 hours. Cell viability was assessed post drug-incubation via 3-(4,5-Dimethylthiazol-2-yl)-2,5-diphenyltetrazolium bromide (MTT; Invitrogen Life Technologies) assays. Individual drug concentrations which inhibit 50% cell growth (D50) were first determined by fitting dose-effect data to the median-effect model (Chou and Talalay, Advances in Enzyme Regulation 1984, 22, 27-55). For combinatorial studies, 5FU and DOX were simultaneously incubated with BT-474 cells at ratios of differing multiples of their D50 concentrations, and cell viability was subsequently assessed. CI values were further calculated, as previously described (Chou, Pharmacological Reviews 2006, 58(3): p. 621-621), with the designations of CI<1, CI=1, and C>1 respectively representing synergy, additivity, and antagonism. The same methodology was applied to assess interactions between all other chemotherapy combinations presented.

[3] = Drug encapsulation in liposomes (absorbance after dissolution); type: physicochemical; conditions: for enhancement of liposomal drug encapsulation relative to 5FU: cationic liposomes; for Drug Incorporation: liposomes 80:10:10 DSPC:DOTAP:Chol containing the 5FU analogue
Experimental: The dissolved liposomes were centrifuged at 12000 g for 20 minutes to allow the lipids to pellet. […] Drug encapsulation is reported as the mol % of drug with respect to lipids±SD. Liposome sizes and ζ potentials were determined utilizing dynamic light scattering and electrophoretic light scattering, respectively, on a Malvern ZSizer Nano ZS. Samples were diluted 100× in distilled de-ionized water immediately prior analysis, and each measurement is reported as an average of 3 independent sets of at least 13 runs each ±SD. Drug encapsulation was evaluated for each drug, and the encapsulation methods reported here provided the highest yield for each respective drug. […] To remove free drug, liposomes were finally passed through a Sephadex G-25 PD-10 column.

[4] = Liposome size and zeta potential (dynamic/electrophoretic light scattering); type: physicochemical; conditions: liposomes 80:10:10 DSPC:DOTAP:Chol containing the 5FU analogue
Experimental: To measure drug encapsulation, 50 μL of drug-loaded liposomes were dissolved in 950 μL methanol through vortexing and sonication. The dissolved liposomes were centrifuged at 12000 g for 20 minutes to allow the lipids to pellet. The supernatant was collected, diluted serially, and their absorbances were measured at 480 nm, 266 nm, 264 nm, 268 nm, 268 nm, and 394 nm to quantify DOX, 5FU, 5FUG, 5FUW, 5FUR, and 5FURW concentrations, respectively. Drug encapsulation is reported as the mol % of drug with respect to lipids±SD. Liposome sizes and ζ potentials were determined utilizing dynamic light scattering and electrophoretic light scattering, respectively, on a Malvern ZSizer Nano ZS. Samples were diluted 100× in distilled de-ionized water immediately prior analysis, and each measurement is reported as an average of 3 independent sets of at least 13 runs each ±SD.

[5] = system: 4T1 breast cancer cell line; assay: 5FURW cell viability studies (Example 4); type: cell-based, mouse; conditions: for pIC50: Mus musculus
Experimental: (§3) Two breast cancer cell lines (of mouse and human, 4T1 and MDA-MB-231) were tested with the synthesized 5FURW, compared with 5FU and also with encapsulated drug in liposomes functionalized with amino and carboxyl groups (Table 4, FIG. 13).

[6] = system: MDA-MB-231 breast cancer cell line; assay: 5FURW cell viability studies (Example 4); type: cell-based, human; conditions: for pIC50: Homo sapiens
Experimental: as §3

[7] = Encapsulation efficiency and loading capacity of drug-loaded liposomes (Example 4); type: physicochemical; conditions: 5FURW in PEGylated liposomes, 2 h encapsulation
Experimental: Liposomes were prepared with a mixture of DSPC:DSPE-PEG(2000)Amine or DSPE-PEG(2000)Carboxyl:Cholesterol:DOTAP with the ratio 75:5:10:10 via the thin lipid film formation. After the formation of the lipids and passing them through an extruder to obtain monodisperse 100 nm liposomes, the external solvent was changed using a size exclusion column and the drug encapsulated during two hours. Briefly, the thin lipid films were hydrated with 250 mM (NH4)SO4 to form liposomes containing either amine-terminated PEG or carboxy-terminated PEG. 1 mL of liposomes and 200 μL of 73 mM 5FURW were used for the encapsulation of 5FURW into the liposomes. […]
The encapsulation efficiency and loading capacity were calculated as follows: […]
The liposomes were characterized using (i) the Steward assay to determine lipid concentration, (ii) absorbance at 270 nm to evaluate 5FURW concentration, and (iii) dynamic light scattering measurements to evaluate size and surface potential. […]
The DAFODIL fabrication procedure was performed as follows. […] Characterization consisted of absorbance measurements at 270 nm and 480 nm to determine the concentration of 5FURW and DOX, respectively, dynamic light scattering measurements to measure liposome size and surface potential, and Stewart assay to quantify the concentration of lipids in the sample.

[8] = system: MCF 10A human breast epithelial cells; assay: MTT toxicity against healthy epithelial cells; type: cell-based; conditions: synergistic ratio R=819 vs single drug
Experimental: as §2
These cell types were chosen because any systemically-administered drug is susceptible to interactions and uptake by endothelial cells, as well as epithelial cells in surrounding healthy tissue.

[9] = system: ROS generation in BT-474 cells; assay: Reactive oxygen species generation, carboxy-H2DCFDA confocal microscopy; type: cell-based, human; conditions: 72 hours incubation
Experimental: To visualize and assess the production of reactive oxygen species (ROS), cells were seeded in an 8-well chambered borosilicate coverglass (Nunc Lab-Tek) at a density of 85,000 cells per well in 300 μL medium and grown overnight prior to incubation with drug solutions in fresh medium. After incubation of BT-474 cells with either 5FU and DOX at a molar ratio of 819:1, 5FU alone, or DOX alone for 72 hours, cells were washed three times in PBS and exposed to 10 μM carboxy-H2DCFDA (Invitrogen Life Technologies) in phosphate buffered saline (PBS; Theimo Scientific) for 30 minutes at 37° C. and 5% CO2. Upon acetate cleavage and oxidation, carboxy-H2DCFDA formed carboxydichlorofluorescein and acted as an ROS indicator. Cells were washed thrice more in PBS, finally suspended in cell culture medium, and immediately imaged live using an Olympus Fluoview 1000 spectral confocal microscope. Carboxydichlorofluorescein and DOX were both excited utilizing a 488 nm 10 mW Argon gas laser and visualized with 492-560 nm and 574-674 nm optical filters, respectively. Images were captured as 10 μm z-stacks, and each z-stack was averaged into a single image using ImageJ 1.47 h software (NIH). Fluorescence intensity is reported as the raw integrated density divided by number of cells, determined by DOX fluorescence which coincided with cell nuclei.

[10] = literature (Haran et al.); cited from earlier work

N[C@@H](Cc1c[nH]c2ccccc12)C(=O)O [tryptophan]
toxicity (BT-474 cells; BT-474, W concentrations expected during 5FURW cytotoxicity assays, free or liposome-encapsulated): non-toxic
toxicity [1]: non-toxic

NC(Cc1c[nH]c2ccccc12)C(=O)OC[C@H]1O[C@@H](n2cc(F)c(=O)[nH]c2=O)C(OC(=O)C(N)Cc2c[nH]c3ccccc23)C1OC(=O)C(N)Cc1c[nH]c2ccccc12 (some centres unmarked) [5FURW, 5-fluorouridine-2′, 3′, 5′-tritryptophanate]
anticancer activity compared with 5FUR ([2]; free solution and liposomes, FIGS. 5A and 5B): same anticancer activity as unmodified 5FUR
enhancement of liposomal drug encapsulation relative to 5FU [3]: 38 fold
Drug Incorporation [3]: 26.6 ± 2.4 mol %
Size [4]: 163.8 ± 17.2 nm
Zeta Potential [4]: 32.2 ± 6.5 mV
activity relative to 5FU [5]: 2.5 fold
pIC50 [5]: 4.38
activity relative to 5FU [6]: 127 fold
pIC50 [6]: 6.40
encapsulation efficiency [7]: 20%
loading capacity [7]: 20%

COc1cccc2c1C(=O)c1c(O)c3c(c(O)c1C2=O)C[C@@](O)(C(=O)CO)C[C@@H]3O[C@H]1C[C@H](N)[C@H](O)[C@H](C)O1 [DOX, doxorubicin]
reduction of D50 ratio (BT-474 relative to MCF 10A) by combining at R=819, relative to individual drug [8]: 5 fold
pIC50 (BT-474 cells; BT-474, 72 hrs, fit to ME model, read-out: D50 (DOX-equivalent concentration inhibiting 50% cell growth)): 6.52
ROS generation [9]: Little ROS generation
liposomal encapsulation of DOX [10]: 14-24 mol %

N[C@@H](Cc1c[nH]c2ccccc12)C(=O)OCn1cc(F)c(=O)[nH]c1=O [5FUW, (5-fluoro-2,4-dioxo-3,4-dihydropyrimidin-1(2H)-yl)methyl tryptophanate]
Drug Incorporation [3]: 3.2 mol % and 3.2 ± 0.4 mol %
Size [4]: 167.4 ± 1.8 nm
Zeta Potential [4]: 19.6 ± 0.6 mV

O=c1[nH]cc(F)c(=O)[nH]1 [5FU, 5-fluorouracil, reference compound]
BT-474 cancer cell growth inhibited ([2]; same 5FU concentrations, combination at R=819, FIG. 3B): 40%
reduction of D50 ratio (BT-474 relative to MCF 10A) by combining at R=819, relative to individual drug [8]: 36 fold
Drug Incorporation [3]: 0.7 mol % and 0.7 ± 0.2 mol %
Size [4]: 173.5 ± 43 nm
Zeta Potential [4]: 41.7 ± 9.8 mV
ROS generation [9]: negligible ROS generation
pIC50 [5]: 3.98
pIC50 [6]: 4.30

O=c1[nH]c(=O)n([C@@H]2O[C@H](CO)[C@@H](O)[C@H]2O)cc1F [5FUR, 5-fluorouridine, reference compound]
enhancement of liposomal drug encapsulation relative to 5FU [3]: ~5 fold
Drug Incorporation [3]: 3.7 mol % and 3.7 ± 0.2 mol %
Size [4]: 177.4 ± 2.8 nm
Zeta Potential [4]: 37.9 ± 1.0 mV

NCC(=O)OCn1cc(F)c(=O)[nH]c1=O [5FUG, 1-[(aminomethyl)-ester]methylene-5-fluorouracil]
Drug Incorporation [3]: 1.4 mol % and 1.4 ± 0.5 mol %
Size [4]: 161.8 ± 10.8 nm
Zeta Potential [4]: 41.2 ± 1.8 mV
